Tests used:
Format in all cases: biochemical
[1] = molecular target: T1, Blk(m) (Mus musculus, UniProt P16277); assay: Upstate KinaseProfiler enzyme assay, Blk; conditions: 500 nM compound; read-out: Percent inhibition at 500 nM Blk(m)
T1 construct: purchased Upstate Biotechnology (Dundee, UK), KinaseProfiler service
Procedure, shortened: (§1)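 Outsourced biochemical kinase assays; enzyme stocks at 10× working concentration in MOPS/EDTA/β-mercaptoethanol/Brij-35/glycerol/BSA buffer, pH 7.0.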

[2] = molecular target: T2, KDR(h) (Homo sapiens, UniProt P35968); assay: Upstate KinaseProfiler enzyme assay, KDR; conditions: 500 nM compound; read-out: Percent inhibition at 500 nM KDR(h)
T2 construct: purchased Upstate Biotechnology (Dundee, UK), KinaseProfiler service
Procedure, shortened: as §1

[3] = molecular target: T3, Bmx(h) (Homo sapiens, UniProt P51813); assay: Upstate KinaseProfiler enzyme assay, Bmx; conditions: 500 nM compound; read-out: Percent inhibition at 500 nM Bmx(h)
T3 construct: purchased Upstate Biotechnology (Dundee, UK), KinaseProfiler service
T3 sequence (P51813 1-675): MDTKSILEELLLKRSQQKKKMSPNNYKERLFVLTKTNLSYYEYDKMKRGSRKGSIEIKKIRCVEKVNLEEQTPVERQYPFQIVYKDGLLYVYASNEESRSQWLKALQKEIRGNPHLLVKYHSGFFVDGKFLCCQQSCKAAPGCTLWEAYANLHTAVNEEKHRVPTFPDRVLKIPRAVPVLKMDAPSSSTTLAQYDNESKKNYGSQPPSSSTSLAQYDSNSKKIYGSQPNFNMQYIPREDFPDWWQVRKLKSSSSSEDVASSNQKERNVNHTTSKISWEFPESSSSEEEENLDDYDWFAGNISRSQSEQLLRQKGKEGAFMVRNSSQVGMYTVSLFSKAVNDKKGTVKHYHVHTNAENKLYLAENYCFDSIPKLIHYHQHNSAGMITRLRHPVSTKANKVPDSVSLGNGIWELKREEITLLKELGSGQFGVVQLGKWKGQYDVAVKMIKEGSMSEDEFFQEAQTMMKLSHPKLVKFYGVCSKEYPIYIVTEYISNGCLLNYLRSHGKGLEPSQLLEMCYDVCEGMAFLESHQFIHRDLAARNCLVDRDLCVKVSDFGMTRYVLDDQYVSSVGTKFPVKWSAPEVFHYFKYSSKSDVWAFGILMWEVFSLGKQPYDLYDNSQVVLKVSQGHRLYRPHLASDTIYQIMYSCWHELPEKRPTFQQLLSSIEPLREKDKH
Procedure, shortened: as §1

[4] = molecular target: T4, BTK(h) (Homo sapiens, UniProt Q06187); assay: Upstate KinaseProfiler enzyme assay, BTK; conditions: 500 nM compound; read-out: Percent inhibition at 500 nM BTK(h)
T4 construct: purchased Upstate Biotechnology (Dundee, UK), KinaseProfiler service
Procedure, shortened: as §1

[5] = molecular target: T5, Flt 4(h) (Homo sapiens, UniProt P35916); assay: Upstate KinaseProfiler enzyme assay, Flt 4; conditions: 500 nM compound; read-out: Percent inhibition at 500 nM Flt 4(h)
T5 construct: purchased Upstate Biotechnology (Dundee, UK), KinaseProfiler service
Procedure, shortened: as §1

[6] = molecular target: T6, Flt 1(h) (Homo sapiens, UniProt P17948); assay: Upstate KinaseProfiler enzyme assay, Flt 1; conditions: 500 nM compound; read-out: Percent inhibition at 500 nM Flt 1(h)
T6 construct: purchased Upstate Biotechnology (Dundee, UK), KinaseProfiler service
Procedure, shortened: as §1

T4 sequence (Q06187 whole entry): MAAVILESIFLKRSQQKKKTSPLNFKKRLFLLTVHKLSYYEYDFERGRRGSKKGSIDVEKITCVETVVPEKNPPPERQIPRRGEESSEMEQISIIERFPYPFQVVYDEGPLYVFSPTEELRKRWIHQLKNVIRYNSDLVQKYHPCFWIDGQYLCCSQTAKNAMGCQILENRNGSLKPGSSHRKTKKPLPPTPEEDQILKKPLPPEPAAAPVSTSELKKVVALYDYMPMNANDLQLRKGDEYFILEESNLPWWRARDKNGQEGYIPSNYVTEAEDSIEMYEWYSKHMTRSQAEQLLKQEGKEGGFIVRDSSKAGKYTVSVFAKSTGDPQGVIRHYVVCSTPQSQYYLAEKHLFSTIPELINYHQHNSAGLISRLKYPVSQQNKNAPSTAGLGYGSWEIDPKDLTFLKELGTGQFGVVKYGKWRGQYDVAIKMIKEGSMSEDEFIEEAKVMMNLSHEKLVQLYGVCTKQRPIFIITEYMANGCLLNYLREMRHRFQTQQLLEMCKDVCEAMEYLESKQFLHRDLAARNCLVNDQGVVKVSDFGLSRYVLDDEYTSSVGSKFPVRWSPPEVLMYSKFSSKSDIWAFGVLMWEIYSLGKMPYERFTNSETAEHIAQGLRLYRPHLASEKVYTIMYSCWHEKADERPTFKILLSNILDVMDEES
T6 sequence (P17948 27-1338): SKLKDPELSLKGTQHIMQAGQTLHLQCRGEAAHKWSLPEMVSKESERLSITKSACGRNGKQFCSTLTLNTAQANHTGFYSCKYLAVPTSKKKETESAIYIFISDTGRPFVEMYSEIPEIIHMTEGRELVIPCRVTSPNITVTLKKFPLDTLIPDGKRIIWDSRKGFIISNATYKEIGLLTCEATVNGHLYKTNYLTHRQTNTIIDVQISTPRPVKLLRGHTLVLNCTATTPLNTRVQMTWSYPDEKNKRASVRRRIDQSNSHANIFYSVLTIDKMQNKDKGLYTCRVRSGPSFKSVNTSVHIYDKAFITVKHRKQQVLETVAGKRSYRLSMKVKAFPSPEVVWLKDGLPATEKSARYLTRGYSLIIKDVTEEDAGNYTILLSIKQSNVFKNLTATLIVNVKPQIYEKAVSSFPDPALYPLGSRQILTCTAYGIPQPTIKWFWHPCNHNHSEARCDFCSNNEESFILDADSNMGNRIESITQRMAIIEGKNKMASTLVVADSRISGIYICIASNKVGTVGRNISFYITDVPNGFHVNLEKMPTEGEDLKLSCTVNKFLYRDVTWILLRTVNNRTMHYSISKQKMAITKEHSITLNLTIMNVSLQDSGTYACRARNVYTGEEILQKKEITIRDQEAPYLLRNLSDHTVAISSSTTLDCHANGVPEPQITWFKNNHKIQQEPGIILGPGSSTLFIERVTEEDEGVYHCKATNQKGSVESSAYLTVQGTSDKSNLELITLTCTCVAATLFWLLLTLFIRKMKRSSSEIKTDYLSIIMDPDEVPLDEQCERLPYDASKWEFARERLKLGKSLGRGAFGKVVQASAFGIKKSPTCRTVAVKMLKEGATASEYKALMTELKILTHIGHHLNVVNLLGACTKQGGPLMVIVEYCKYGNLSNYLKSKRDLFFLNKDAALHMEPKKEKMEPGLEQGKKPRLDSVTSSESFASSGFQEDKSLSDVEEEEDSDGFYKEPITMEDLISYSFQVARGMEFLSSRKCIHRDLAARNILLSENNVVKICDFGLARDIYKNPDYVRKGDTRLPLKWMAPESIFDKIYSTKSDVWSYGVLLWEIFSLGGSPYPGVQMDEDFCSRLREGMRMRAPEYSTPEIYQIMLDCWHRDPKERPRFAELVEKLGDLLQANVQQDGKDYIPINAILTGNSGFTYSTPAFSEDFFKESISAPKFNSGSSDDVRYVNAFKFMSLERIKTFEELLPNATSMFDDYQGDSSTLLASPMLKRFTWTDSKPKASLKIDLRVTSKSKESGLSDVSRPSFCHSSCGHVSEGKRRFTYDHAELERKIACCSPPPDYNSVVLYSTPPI
T5 sequence (P35916 25-1363): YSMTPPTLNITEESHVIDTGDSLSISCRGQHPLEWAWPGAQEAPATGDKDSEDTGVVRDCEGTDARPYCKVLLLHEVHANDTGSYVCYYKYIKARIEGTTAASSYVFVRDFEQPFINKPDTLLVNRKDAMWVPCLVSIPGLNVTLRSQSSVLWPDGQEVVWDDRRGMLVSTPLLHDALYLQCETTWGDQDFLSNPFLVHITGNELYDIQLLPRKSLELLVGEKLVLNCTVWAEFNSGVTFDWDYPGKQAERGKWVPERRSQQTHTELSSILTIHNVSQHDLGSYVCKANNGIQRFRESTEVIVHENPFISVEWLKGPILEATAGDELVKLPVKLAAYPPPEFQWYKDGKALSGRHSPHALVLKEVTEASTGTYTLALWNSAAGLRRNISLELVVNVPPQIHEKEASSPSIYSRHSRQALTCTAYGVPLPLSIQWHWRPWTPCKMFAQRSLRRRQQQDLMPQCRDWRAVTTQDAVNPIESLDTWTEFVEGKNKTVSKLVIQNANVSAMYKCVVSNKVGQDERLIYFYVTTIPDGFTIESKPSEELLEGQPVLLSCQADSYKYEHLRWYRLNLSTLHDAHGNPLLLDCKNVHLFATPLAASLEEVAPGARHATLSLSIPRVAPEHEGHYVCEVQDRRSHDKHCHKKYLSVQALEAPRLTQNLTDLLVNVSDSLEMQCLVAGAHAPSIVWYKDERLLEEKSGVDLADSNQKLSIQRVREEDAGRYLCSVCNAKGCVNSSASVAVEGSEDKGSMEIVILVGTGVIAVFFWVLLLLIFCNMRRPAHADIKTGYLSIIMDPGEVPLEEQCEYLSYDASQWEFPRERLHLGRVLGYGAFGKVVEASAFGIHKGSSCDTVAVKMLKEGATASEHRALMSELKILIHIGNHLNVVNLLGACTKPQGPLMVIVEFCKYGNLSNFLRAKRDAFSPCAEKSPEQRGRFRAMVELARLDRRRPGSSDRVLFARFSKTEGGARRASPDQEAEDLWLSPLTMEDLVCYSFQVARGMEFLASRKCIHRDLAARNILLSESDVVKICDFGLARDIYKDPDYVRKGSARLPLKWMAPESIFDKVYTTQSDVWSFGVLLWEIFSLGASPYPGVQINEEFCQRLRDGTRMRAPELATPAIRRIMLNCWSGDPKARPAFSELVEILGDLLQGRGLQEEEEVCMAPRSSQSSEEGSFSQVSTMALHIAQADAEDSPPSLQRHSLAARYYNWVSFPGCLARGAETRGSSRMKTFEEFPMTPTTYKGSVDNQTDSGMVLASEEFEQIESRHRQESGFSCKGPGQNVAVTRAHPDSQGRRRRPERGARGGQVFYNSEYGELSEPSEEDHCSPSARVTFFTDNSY
T2 sequence (P35968 20-1356): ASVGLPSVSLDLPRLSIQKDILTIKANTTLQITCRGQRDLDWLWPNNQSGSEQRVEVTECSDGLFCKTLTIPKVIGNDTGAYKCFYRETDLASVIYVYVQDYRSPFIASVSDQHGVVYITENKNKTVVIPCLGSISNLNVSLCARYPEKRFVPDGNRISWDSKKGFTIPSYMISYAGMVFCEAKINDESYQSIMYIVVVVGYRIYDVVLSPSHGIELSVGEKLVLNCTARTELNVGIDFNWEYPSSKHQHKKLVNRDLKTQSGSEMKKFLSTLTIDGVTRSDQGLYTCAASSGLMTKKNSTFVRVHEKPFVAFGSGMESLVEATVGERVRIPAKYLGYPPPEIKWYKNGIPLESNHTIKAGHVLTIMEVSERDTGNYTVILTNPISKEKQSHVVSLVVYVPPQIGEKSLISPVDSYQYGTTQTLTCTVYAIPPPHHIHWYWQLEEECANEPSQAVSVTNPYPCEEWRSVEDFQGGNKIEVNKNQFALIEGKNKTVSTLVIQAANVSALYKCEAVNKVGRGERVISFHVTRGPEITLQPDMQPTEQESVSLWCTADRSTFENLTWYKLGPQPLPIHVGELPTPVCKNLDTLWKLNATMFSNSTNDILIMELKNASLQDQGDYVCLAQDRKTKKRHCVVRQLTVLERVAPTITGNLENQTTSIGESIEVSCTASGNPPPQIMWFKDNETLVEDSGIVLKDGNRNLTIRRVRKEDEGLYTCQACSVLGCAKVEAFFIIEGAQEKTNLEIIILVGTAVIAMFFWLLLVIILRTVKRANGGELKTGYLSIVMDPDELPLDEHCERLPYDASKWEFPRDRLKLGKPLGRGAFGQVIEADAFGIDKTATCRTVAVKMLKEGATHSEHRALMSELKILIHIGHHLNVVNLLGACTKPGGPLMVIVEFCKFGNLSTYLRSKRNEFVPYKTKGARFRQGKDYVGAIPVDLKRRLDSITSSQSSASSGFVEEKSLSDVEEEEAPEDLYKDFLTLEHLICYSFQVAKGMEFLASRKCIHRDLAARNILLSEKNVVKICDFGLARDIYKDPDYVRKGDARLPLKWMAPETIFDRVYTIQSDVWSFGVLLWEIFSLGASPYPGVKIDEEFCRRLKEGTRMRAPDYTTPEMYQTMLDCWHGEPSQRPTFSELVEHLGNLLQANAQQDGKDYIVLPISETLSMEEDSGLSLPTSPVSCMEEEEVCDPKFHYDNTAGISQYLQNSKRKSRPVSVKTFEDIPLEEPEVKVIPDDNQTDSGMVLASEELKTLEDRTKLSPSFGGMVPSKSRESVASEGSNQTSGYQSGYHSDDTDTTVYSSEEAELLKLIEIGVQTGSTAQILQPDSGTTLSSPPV

Structure (SMILES) | inhibition at 0.5 µM [1] [%] | inhibition at 0.5 µM [2] [%] | inhibition at 0.5 µM [3] [%] | inhibition at 0.5 µM [4] [%] | inhibition at 0.5 µM [5] [%] | inhibition at 0.5 µM [6] [%]
CC#CC(=O)Nc1ccc(Sc2nc(Nc3ccc(N4CCOCC4)cc3)ncc2C)cc1 [Compound 125, N-(4-(5-methyl-2-(4-morpholinophenylao)pyrimidin-4-ylthio)phenyl)but-2-ynamide] | 100 | 100 | 100 | 100 | – | –
CC#CC(=O)Nc1ccc(Sc2ccnc(Nc3ccc(N4CCOCC4)cc3)n2)cc1 [Compound 104, N-(4-(2-(4-morpholinophenylao)pyrimidin-4-ylthio)phenyl)but-2-ynamide] | 30 | – | 100 | 73 | – | –
C=CC(=O)Nc1ccc(Sc2ccnc(Nc3ccc(N4CCS(=O)(=O)CC4)cc3)n2)cc1 [Compound 99, N-{4-[(2-{[4-(1,1-dioxo-1λ^6,4-thiomorpholin-4-yl)phenyl]ao}pyrimidin-4-yl)sulfanyl]phenyl}prop-2-enamide] | 100 | 100 | 100 | 100 | – | –
C=CC(=O)Nc1ccc(Sc2nc(Nc3ccc(N4CCOCC4)cc3)ncc2-c2ccccc2)cc1 [Compound 307, N-(4-(2-(4-morpholinophenylao)-5-phenylpyrimidin-4-ylthio)phenyl)acrylamide] | 0 | 72 | 29 | – | 93 | 19
C=CC(=O)Nc1cccc(Sc2ccnc(Nc3ccc(OC)cc3)n2)c1 [Compound 120, N-(3-(2-(4-methoxyphenylao)pyrimidin-4-ylthio)phenyl)acrylamide] | 100 | 100 | 100 | 100 | – | –
C=CC(=O)Nc1ccc(Sc2ccnc(Nc3ccc(C#N)cc3)n2)cc1 [Compound 131, N-(4-(2-(4-cyanophenylao)pyrimidin-4-ylthio)phenyl)acrylamide] | 100 | 100 | 100 | 100 | – | –
C=CC(=O)Nc1ccc(Sc2ccnc(Nc3ccc(OC)c(O)c3)n2)cc1 [Compound 97] | 100 | 100 | 100 | 100 | – | –
C=CC(=O)Nc1ccc(Sc2ccnc(Nc3cccc(C#N)c3)n2)cc1 [Compound 118, N-(4-(2-(3-cyanophenylao)pyrimidin-4-ylthio)phenyl)acrylamide] | 100 | 100 | 100 | 100 | – | –
C=CC(=O)Nc1cc(C)c(Sc2nc(Nc3ccc(N4CCOCC4)cc3)ncc2C)c(C)c1 [Compound 164, N-(3,5-dimethyl-4-(5-methyl-2-(4-morpholinophenylao)pyrimidin-4-ylthio)phenyl)acrylamide] | 62 | 83 | 87 | – | 97 | 44
C=CC(=O)Nc1ccc(Sc2ccnc(Nc3ccc(OC)cc3)n2)cc1 [Compound 74, N-(4-(2-(4-methoxyphenylao)pyrimidin-4-ylthio)phenyl)acrylamide] | 100 | 100 | 100 | 100 | – | –
C=CC(=O)Nc1ccc(Sc2ccnc(Nc3cccc(OC)c3)n2)cc1 [Compound 105, N-(4-(2-(3-methoxyphenylao)pyrimidin-4-ylthio)phenyl)acrylamide] | 100 | 100 | 100 | 100 | – | –
C=CC(=O)Nc1ccc(Sc2ccnc(Nc3ccc(F)c(C#N)c3)n2)cc1 [Compound 354, N-(4-(2-(3-cyano-4-fluorophenylao)pyrimidin-4-ylthio)phenyl)acrylamide] | 100 | 100 | 100 | 100 | – | –
C=CC(=O)Nc1ccc(Sc2ccnc(Nc3cccc(S(N)(=O)=O)c3)n2)cc1 [Compound 364, N-(4-(2-(3-sulfamoylphenylao)pyrimidin-4-ylthio)phenyl)acrylamide] | 81 | 96 | 73 | – | 99 | 97
C=CC(=O)Nc1ccc(Sc2ccnc(Nc3ccc(N4CCC(N5CCCC5)CC4)cc3)n2)cc1 [Compound 87, N-(4-(2-(4-(4-(pyrrolidin-1-yl)piperidin-1-yl)phenylao)pyrimidin-4-ylthio)phenyl)acrylamide] | 100 | 100 | 100 | 100 | – | –
C=CC(=O)Nc1ccc(Sc2ccnc(Nc3ccc(C(=O)OC)cc3)n2)cc1 [Compound 357, methyl 4-(4-(4-acrylamidophenylthio)pyrimidin-2-ylao)benzoate] | 48 | 95 | 48 | – | 99 | 76
CC(=O)Nc1ccc(Sc2nc(Nc3ccc(N4CCOCC4)cc3)ncc2C)cc1 [Compound 135, N-(4-(5-methyl-2-(4-morpholinophenylao)pyrimidin-4-ylthio)phenyl)acetamide] | 9 | 95 | 58 | – | 99 | 96
C=CC(=O)Nc1ccc(Sc2ccnc(Nc3ccc(Cl)cc3)n2)cc1 [Compound 353, N-(4-(2-(4-chlorophenylao)pyrimidin-4-ylthio)phenyl)acrylamide] | 100 | 100 | 100 | 100 | – | –
C=CC(=O)Nc1ccc(Sc2ccnc(Nc3cccc(C(=O)OC)c3)n2)cc1 [Compound 356, methyl 3-(4-(4-acrylamidophenylthio)pyrimidin-2-ylao)benzoate] | 100 | 100 | 100 | 100 | – | –
C=CC(=O)Nc1ccc(Sc2ccnc(Nc3ccc(N4CCOCC4)cc3)n2)c(Cl)c1C [Compound 161, N-(3-chloro-2-methyl-4-(2-(4-morpholinophenylao)pyrimidin-4-ylthio)phenyl)acrylamide] | 100 | 100 | 100 | 100 | – | –
C=CC(=O)Nc1ccc(Sc2ccnc(Nc3ccccc3)n2)cc1 [Compound 350, N-(4-(2-(phenylao)pyrimidin-4-ylthio)phenyl)acrylamide] | 100 | 100 | 100 | 100 | – | –
C=CC(=O)Nc1ccc(Sc2ccnc(Nc3ccc(S(N)(=O)=O)cc3)n2)cc1 [Compound 352, N-(4-(2-(4-sulfamoylphenylao)pyrimidin-4-ylthio)phenyl)acrylamide] | 100 | 100 | 100 | 100 | – | –
Cc1cnc(Nc2ccc(N3CCOCC3)cc2)nc1Sc1ccc(N)cc1 [Compound 126, 4-(4-aophenylthio)-5-methyl-N-(4-morpholinophenyl)pyrimidin-2-ae] | 43 | 95 | 78 | – | 99 | 93

Source: US8846704B2, “Thiopyrimidine-based compounds and uses thereof” (YM Biosciences Austraila Pty Ltd, priority 2007, dated 2014)
